Test systems include A549; CAKI-1; COLO 205; HCT-15; HL-60; Hs-578T; IGROV-1; K562; LOX IMVI; MCF7; MDA-MB-231; MDA-MB-435; MDA-N; Malme-3M; NCI-H23; NCI-H460; OVCAR-5; SF-268; SK-MEL-5; A498.
Experiment in all cases: growth of human tumour cells (NCI), 48 h

Values joined by “and” are separate entries in the source; they are usually repeats but may differ in a detail not shown here. Equal values may be shown once.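 Compound exposure: 48 hours, 5 concentrations, 96-well plates. The concentration for 50% growth inhibition is given as GI50.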 Active and inactive are the calls of the source. Cut-off read from the data, not from the text of the source: active = GI50 up to about 1.1 µM and inactive = higher. Bounds are passed on as bounds.

Consider `NS(=O)(=O)c1ccc(NC(NC(=O)C(C(F)(F)F)C(F)(F)F)(C(F)(F)F)C(F)(F)F)cc1`, for which the GI50 was > 100 µM (inactive) with A549; > 100 µM (inactive) in the assay on CAKI-1; > 100 µM (inactive) in the assay on COLO 205; over 100 µM in the assay on HCT-15; > 100 µM (inactive) in the assay on HL-60; > 100 µM (inactive) in the assay on Hs-578T. Moreover, the GI50 in the assay with IGROV-1, in the assay on K562, in the assay on LOX IMVI, in the assay with MCF7, in the assay with MDA-MB-231 and with MDA-MB-435 was > 100 µM (inactive) in each case. Also, the GI50 in the assay with MDA-N, in the assay with Malme-3M, in the assay on NCI-H23, in the assay on NCI-H460, with OVCAR-5 and in the assay on SF-268 was > 100 µM (inactive) throughout. Moreover, the GI50 in the assay with SK-MEL-5 was > 100 µM (inactive).

`COc1ccc(C2Oc3c(OC)cc(CCCO)cc3C2CO)cc1OC` (stereo unspecified): the GI50 in the assay on A549 was 88.1 µM (inactive) and 80 µM (inactive); in the assay with COLO 205, > 100 µM (inactive); in the assay on HCT-15 it was over 100 µM; in the assay on HL-60, 43.8 µM (inactive) and 65.3 µM (inactive); in the assay with Hs-578T, > 100 µM (inactive); with IGROV-1, > 100 µM (inactive). The GI50 was 20.6 µM (inactive) and 38.5 µM (inactive) in the assay on K562; 27.6 µM (inactive) and 44.7 µM (inactive) in the assay with MCF7; 99.3 µM (inactive) with MDA-MB-231; 70 µM (inactive) and 93.5 µM (inactive) in the assay on MDA-MB-435; 93.1 µM (inactive) and 71.4 µM (inactive) in the assay on MDA-N; > 100 µM (inactive) and 50.7 µM (inactive) in the assay with Malme-3M. For the same compound, the GI50 with NCI-H460, with OVCAR-5 and in the assay with SF-268 was > 100 µM (inactive) each time.

As to `Cc1ccccc1N/C(N)=N/C#N`, the GI50 in the assay on A549 was > 100 µM (inactive); in the assay with CAKI-1, > 100 µM (inactive); in the assay on COLO 205, > 100 µM (inactive); in the assay with HCT-15 it was over 100 µM; in the assay with HL-60, > 100 µM (inactive); in the assay with Hs-578T, > 100 µM (inactive). The GI50 in the assay with IGROV-1, in the assay with K562, with LOX IMVI, with MCF7, in the assay with MDA-MB-231 and in the assay with MDA-MB-435 was > 100 µM (inactive) each time. The GI50 in the assay with MDA-N, with Malme-3M, in the assay with NCI-H23, with NCI-H460, with OVCAR-5 and in the assay on SF-268 was > 100 µM (inactive) throughout. Moreover, in the assay with SK-MEL-5, the GI50 was > 100 µM (inactive).

Regarding `O=c1c2sc3ccccc3sc=2c(=O)c2c(Cl)c(Cl)c(Cl)c(Cl)c12`, the GI50 with A498 is > 100 µM (inactive); in the assay on A549, > 100 µM (inactive); in the assay with CAKI-1 it was > 100 µM (inactive); with COLO 205, > 100 µM (inactive); in the assay with HCT-15, 39.7 µM; with Hs-578T, 38.4 µM (inactive). Besides, the GI50 was > 100 µM (inactive) with IGROV-1; 34.8 µM (inactive) with K562; > 100 µM (inactive) in the assay on MCF7; > 100 µM (inactive) in the assay with MDA-MB-231; > 100 µM (inactive) in the assay on MDA-MB-435; > 100 µM (inactive) with MDA-N. The GI50 in the assay on Malme-3M, with NCI-H23, in the assay on NCI-H460, with OVCAR-5, in the assay with SF-268 and in the assay on SK-MEL-5 was > 100 µM (inactive) throughout.

Regarding `COc1cc2oc(=O)cc(C)c2c(OC)c1OC(C)=O`, the GI50 with A498 is > 100 µM (inactive); in the assay with A549, > 100 µM (inactive); in the assay with COLO 205 it was > 100 µM (inactive); with HCT-15, over 100 µM; with Hs-578T, > 100 µM (inactive); in the assay with IGROV-1, > 100 µM (inactive). In addition, the GI50 in the assay on K562, in the assay with LOX IMVI, in the assay on MCF7, in the assay with MDA-MB-231, in the assay on MDA-MB-435 and in the assay with MDA-N was > 100 µM (inactive) throughout. Moreover, the GI50 in the assay with Malme-3M, with NCI-H23, in the assay on OVCAR-5, in the assay with SF-268 and in the assay on SK-MEL-5 was > 100 µM (inactive) throughout.

Consider `COc1ccc(/N=[N+](\[O-])c2ccc(OC)cc2)cc1`, for which the GI50 is > 100 µM (inactive) with A498; > 100 µM (inactive) in the assay with A549; > 100 µM (inactive) with CAKI-1; > 100 µM (inactive) in the assay on COLO 205; over 100 µM in the assay on HCT-15; > 100 µM (inactive) in the assay with Hs-578T. Moreover, the GI50 in the assay on IGROV-1, in the assay on K562, in the assay with MCF7, in the assay with MDA-MB-231, with MDA-MB-435 and with MDA-N was > 100 µM (inactive) throughout. Moreover, the GI50 in the assay with Malme-3M, in the assay with NCI-H23, in the assay on NCI-H460, in the assay with OVCAR-5, with SF-268 and with SK-MEL-5 was > 100 µM (inactive) in each case.

Turning to `Nc1c2ccccc2nc2ccc(C(=O)Nc3ccc(S(N)(=O)=O)cc3)cc12`, the GI50 was > 100 µM (inactive) in the assay on A549; > 100 µM (inactive) in the assay with CAKI-1; > 100 µM (inactive) with COLO 205; over 100 µM in the assay with HCT-15; > 100 µM (inactive) with HL-60; > 100 µM (inactive) in the assay on Hs-578T. Besides, the GI50 in the assay with IGROV-1, with K562, in the assay with LOX IMVI, in the assay on MCF7, in the assay with MDA-MB-231 and with MDA-MB-435 was > 100 µM (inactive) throughout. Besides, the GI50 with MDA-N, in the assay with Malme-3M, with NCI-H23, in the assay on NCI-H460, in the assay with OVCAR-5 and with SF-268 was > 100 µM (inactive) each time. Also, the GI50 in the assay on SK-MEL-5 was > 100 µM (inactive).

As for `COc1ccc2nc3cc(Cl)ccc3c(NCCCNCc3cc(OC)c(OC)c(OC)c3)c2c1`, the GI50 with A549 was 1.83 µM (inactive); in the assay on CAKI-1, 1.71 µM (inactive); in the assay with COLO 205 it was 1.31 µM (inactive); in the assay on HCT-15, 1.54 µM; in the assay with HL-60, 0.895 µM (active); with Hs-578T, 2.95 µM (inactive). For the same compound, the GI50 in the assay with IGROV-1 is 1.82 µM (inactive); with K562 it was 0.465 µM (active); in the assay on LOX IMVI, 1.54 µM (inactive); in the assay on MCF7 it was 1.75 µM (inactive); in the assay with MDA-MB-231, 1.98 µM (inactive); with MDA-MB-435 it was 1.82 µM (inactive). Further, the GI50 is 1.82 µM (inactive) with MDA-N; 2.23 µM (inactive) in the assay with Malme-3M; 1.71 µM (inactive) in the assay on NCI-H23; 1.64 µM (inactive) in the assay on NCI-H460; 1.69 µM (inactive) in the assay with OVCAR-5; 1.67 µM (inactive) in the assay on SF-268. Also, the GI50 in the assay on SK-MEL-5 is 1.4 µM (inactive).

Take `Cc1ccccc1N(C)S(=O)(=O)c1ccccc1[N+](=O)[O-]`: the GI50 was 45.9 µM (inactive) with A549; 59.3 µM (inactive) in the assay on CAKI-1; 13.1 µM (inactive) with COLO 205; 57.9 µM in the assay on HCT-15; 27.9 µM (inactive) with HL-60; 66.1 µM (inactive) in the assay on Hs-578T. The GI50 was > 100 µM (inactive) with IGROV-1; 28.7 µM (inactive) in the assay with K562; 55.3 µM (inactive) with LOX IMVI; 42.5 µM (inactive) with MCF7; 22.3 µM (inactive) in the assay on MDA-MB-231; 33.4 µM (inactive) in the assay with MDA-MB-435. Besides, the GI50 in the assay on MDA-N is 45.5 µM (inactive); with Malme-3M, > 100 µM (inactive); in the assay on NCI-H23, 31.5 µM (inactive); with NCI-H460, 36.1 µM (inactive); with OVCAR-5 it was 66.7 µM (inactive); in the assay with SF-268, 40.7 µM (inactive). In addition, the GI50 in the assay with SK-MEL-5 was 15.4 µM (inactive).

As to `COc1ccc2c(c1)C(=O)C1(C2)[C@H](c2ccccc2)C2C(=O)c3cc(OC)ccc3C2[C@H]1c1ccccc1` (stereo partly specified), the GI50 in the assay with A498 is > 100 µM (inactive); in the assay on A549, > 100 µM (inactive); in the assay on CAKI-1, 1.75 µM (inactive); in the assay on COLO 205, > 100 µM (inactive); with HCT-15, over 100 µM; in the assay with HL-60, 6.21 µM (inactive). For the same compound, the GI50 is 74.6 µM (inactive) in the assay on Hs-578T; > 100 µM (inactive) in the assay on IGROV-1; > 100 µM (inactive) in the assay with K562; > 100 µM (inactive) with LOX IMVI; > 100 µM (inactive) in the assay with MDA-MB-231; > 100 µM (inactive) in the assay on MDA-MB-435. For the same compound, the GI50 with MDA-N was > 100 µM (inactive); with Malme-3M, > 100 µM (inactive); with NCI-H23, 15.1 µM (inactive); in the assay on NCI-H460, > 100 µM (inactive); in the assay on OVCAR-5, > 100 µM (inactive); with SF-268 it was > 100 µM (inactive). The GI50 in the assay with SK-MEL-5 is > 100 µM (inactive).

As for `N#CC1Nc2ccccc2[C@@H](O)C1O` (stereo partly specified), the GI50 with A549 is > 100 µM (inactive); with CAKI-1, > 100 µM (inactive); with COLO 205, > 100 µM (inactive); in the assay with HCT-15, over 100 µM; in the assay on HL-60 it was > 100 µM (inactive); with Hs-578T, > 100 µM (inactive). The GI50 in the assay on IGROV-1, in the assay with K562, in the assay on LOX IMVI, with MCF7, in the assay on MDA-MB-231 and with MDA-MB-435 was > 100 µM (inactive) throughout. Further, the GI50 with MDA-N, with Malme-3M, in the assay with NCI-H23, with NCI-H460, in the assay with OVCAR-5 and in the assay on SF-268 was > 100 µM (inactive) throughout. Besides, the GI50 in the assay on SK-MEL-5 is > 100 µM (inactive).
